Experimental data taken from patent publication US9303016B2, “Derivatives of aza adamantane and uses thereof” (CONNEXIOS LIFE SCIENCES PVT. LTD., priority 2011, dated 2016).

What follows are compounds tested against T1, human full length HSD11β1 (Homo sapiens, UniProt P28845) (assay: In Vitro HSD11β1 Inhibition Assay). Settings: CHO cells transiently expressing human HSD11β1; 200 nM cortisone+500 uM NADPH overnight; cortisone to cortisol by LC/MS-MS; read-out: 11βHSD1 (IC50).
T1 construct: transient expression of human full length HSD11β1 expression vector; host or cells: CHO cells, transient transfection
T1 sequence (P28845 whole entry): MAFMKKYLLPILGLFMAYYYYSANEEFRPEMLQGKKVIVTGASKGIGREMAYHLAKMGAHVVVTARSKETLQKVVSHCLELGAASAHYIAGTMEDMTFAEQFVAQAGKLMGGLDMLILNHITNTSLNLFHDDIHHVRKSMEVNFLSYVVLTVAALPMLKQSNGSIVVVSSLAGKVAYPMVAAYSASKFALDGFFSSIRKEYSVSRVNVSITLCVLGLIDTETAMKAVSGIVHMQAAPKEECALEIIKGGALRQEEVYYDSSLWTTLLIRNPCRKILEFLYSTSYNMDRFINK
Assay type: cell-based
Method: In Vitro HSD11β1 Inhibition Assay:
CHO cells were maintained in Dulbecco's modified Eagle's medium/nutrient mixture F-12 containing 5% fetal bovine serum (v/v) and 2 mM glutamine. Cells were cultured at 37° C. with 5% CO2. For transient expression of human full length HSD11β1 expression vector (OriGene Technologies), cells were seeded at a density of 2×10^5 cells/well in a 6-well plate. Transfection was done using Turbofectin8 reagent (OriGene Technologies), according to the protocol provided with the reagent. After 24 hours post-transfection, cells were trypsinized and pooled together before they were re-seeding to 96-well plate at a density of 40000 cells/well. 24 hours after re-seeding, cells were incubated with 200 nM cortisone+500 uM NADPH (or along with small molecule inhibitors) overnight. The enzymatic activity or inhibition of enzyme activity was measured by estimating the conversion of cortisone to cortisol by LC/MS-MS method. The IC50 in nM was calculated from a 8 point log scale of concentration versus inhibition.

O=C(CC(c1ccc(F)cc1)c1c[nH]c2ccccc12)N1C2CC3CC1CC(O)(C3)C2 (single isomer, unassigned) [Compound 81, 3-(4-fluorophenyl)-1-(5-hydroxy-2-azatricyclo[3.3.1.1^3,7]dec-2-yl)-3-(1H-indol-3-yl)propan-1-one] and CC(CC(=O)N1C2CC3CC1CC(O)(C3)C2)c1c[nH]c2cc(F)ccc12 (single isomer, unassigned) [Compound 97, 3-(6-fluoro-1H-indol-3-yl)-1-(5-hydroxy-2-azatricyclo[3.3.1.1^3,7]dec-2-yl)butan-1-one] cannot be ordered by IC50: > 250 nM for the first, > 250 nM for the second.

First: CC(CC(=O)N1C2CC3CC1CC(O)(C3)C2)c1c[nH]c2cc(F)ccc12 (single isomer, unassigned) [Compound 98, 3-(6-fluoro-1H-indol-3-yl)-1-(5-hydroxy-2-azatricyclo[3.3.1.1^3,7]dec-2-yl)butan-1-one]
Second: Cc1c(F)ccc2[nH]cc(C(C)CC(=O)N3C4CC5CC3CC(O)(C5)C4)c12 (single isomer, unassigned) [Compound 147, 3-(5-fluoro-4-methyl-1H-indol-3-yl)-1-(5-hydroxy-2-azatricyclo[3.3.1.1^3,7]dec-2-yl)butan-1-one]
The IC50 of the first is lower: < 100 nM for the first, 100 to 150 nM for the second.

CC(CC(=O)N1C2CC3CC1CC(O)(C3)C2)c1c[nH]c2cccc(C3CC3)c12 (single isomer, unassigned) [Compound 102, 3-(4-cyclopropyl-1H-indol-3-yl)-1-(5-hydroxy-2-azatricyclo[3.3.1.1^3,7]dec-2-yl)butan-1-one] and Cc1c(F)ccc2[nH]cc(C(C)CC(=O)N3C4CC5CC3CC(O)(C5)C4)c12 (single isomer, unassigned) [Compound 148, 3-(5-fluoro-4-methyl-1H-indol-3-yl)-1-(5-hydroxy-2-azatricyclo[3.3.1.1^3,7]dec-2-yl)butan-1-one] cannot be ordered by IC50: < 100 nM for the first, < 100 nM for the second.

CC(CC(=O)N1C2CC3CC1CC(O)(C3)C2)c1c[nH]c2cccc(C3CC3)c12 (single isomer, unassigned) [Compound 103, 3-(4-cyclopropyl-1H-indol-3-yl)-1-(5-hydroxy-2-azatricyclo[3.3.1.1^3,7]dec-2-yl)butan-1-one] and COc1cc2c(C(C)CC(=O)N3C4CC5CC3CC(O)(C5)C4)c[nH]c2cc1Cl (single isomer, unassigned) [Compound 129, 3-(6-chloro-5-methoxy-1H-indol-3-yl)-1-(5-hydroxy-2-azatricyclo[3.3.1.1^3,7]dec-2-yl)butan-1-one] cannot be ordered by IC50: > 250 nM for the first, > 250 nM for the second.

First: CC(CC(=O)N1C2CC3CC1CC(O)(C3)C2)c1nc2ccccc2s1 (single isomer, unassigned) [Compound 115, 3-(1,3-benzothiazol-2-yl)-1-(5-hydroxy-2-azatricyclo[3.3.1.1^3,7]dec-2-yl)butan-1-one]
Second: CC(CC(=O)N1C2CC3CC1CC(C#N)(C3)C2)c1nc2c(Cl)cccc2s1 (single isomer, unassigned) [Compound 124, 2-[3-(4-chloro-1,3-benzothiazol-2-yl)butanoyl]-2-azatricyclo[3.3.1.1^3,7]decane-5-carbonitrile]
The IC50 of the first is lower: 200 to 250 nM for the first, > 250 nM for the second. The first is the more potent here.

First: CC(CC(=O)N1C2CC3CC1CC(C#N)(C3)C2)c1nc2c(Cl)cccc2s1 (single isomer, unassigned) [Compound 125, 2-[3-(4-chloro-1,3-benzothiazol-2-yl)butanoyl]-2-azatricyclo[3.3.1.1^3,7]decane-5-carbonitrile]
Second: COc1cc2c(C(C)CC(=O)N3C4CC5CC3CC(O)(C5)C4)c[nH]c2cc1Cl (single isomer, unassigned) [Compound 130, 3-(6-chloro-5-methoxy-1H-indol-3-yl)-1-(5-hydroxy-2-azatricyclo[3.3.1.1^3,7]dec-2-yl)butan-1-one]
The IC50 of the first is higher: > 250 nM for the first, < 100 nM for the second. The second is the more potent here.

For O=C(CC(c1ccccc1)c1c[nH]c2cc(Cl)ccc12)N1C2CC3CC1CC(C(=O)O)(C3)C2 (single isomer, unassigned) [Compound 141, 2-[3-(6-chloro-1H-indol-3-yl)-3-phenylpropanoyl]-2-azatricyclo[3.3.1.1^3,7]decane-5-carboxylic acid], the IC50 was 100 to 150 nM.
